According to patent publication US12351574B2, “Selective ligands for modulation of GIRK channels” (Northeastern University, priority 2018, dated 2025):

Biological target: T1, GIRK1/2(IV-VT) (UniProt P48542+P48549, I97V/V99T)
T1 construct: expressed in transfected cells; host or cells: Xenopus laevis oocytes (cRNA injection)
T1 sequence (P48549 1-501): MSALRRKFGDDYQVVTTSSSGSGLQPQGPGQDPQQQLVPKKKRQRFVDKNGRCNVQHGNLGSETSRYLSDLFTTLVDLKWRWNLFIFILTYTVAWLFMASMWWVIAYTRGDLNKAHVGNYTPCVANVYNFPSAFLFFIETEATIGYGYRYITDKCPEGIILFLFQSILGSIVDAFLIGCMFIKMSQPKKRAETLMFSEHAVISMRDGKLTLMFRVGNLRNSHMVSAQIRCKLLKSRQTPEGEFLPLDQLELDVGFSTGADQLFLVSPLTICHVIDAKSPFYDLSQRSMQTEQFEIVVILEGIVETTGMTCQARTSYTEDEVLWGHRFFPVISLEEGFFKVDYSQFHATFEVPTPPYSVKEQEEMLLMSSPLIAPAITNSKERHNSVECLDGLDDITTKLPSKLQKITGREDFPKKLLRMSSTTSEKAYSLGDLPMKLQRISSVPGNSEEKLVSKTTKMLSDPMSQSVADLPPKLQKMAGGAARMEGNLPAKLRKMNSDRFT
T1 sequence (P48542 1-425 I97V/V99T): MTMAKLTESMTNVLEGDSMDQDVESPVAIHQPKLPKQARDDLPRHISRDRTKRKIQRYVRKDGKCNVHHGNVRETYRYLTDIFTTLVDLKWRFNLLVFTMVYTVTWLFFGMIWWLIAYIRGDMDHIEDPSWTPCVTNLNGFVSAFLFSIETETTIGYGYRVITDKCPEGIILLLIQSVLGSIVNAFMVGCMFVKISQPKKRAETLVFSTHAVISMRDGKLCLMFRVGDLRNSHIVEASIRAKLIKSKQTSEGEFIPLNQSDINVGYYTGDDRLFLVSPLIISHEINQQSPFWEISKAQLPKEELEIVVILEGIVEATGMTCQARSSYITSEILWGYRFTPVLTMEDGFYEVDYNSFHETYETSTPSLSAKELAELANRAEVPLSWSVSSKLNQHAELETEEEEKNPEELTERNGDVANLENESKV
Test: TEVC in Xenopus oocytes, double mutant GIRK1/2(IV-VT)
Type: cell-based, human GIRK1, mouse GIRK2
Conditions: GIRK1/2(IV-VT) double mutant
From the text: Molecular biology: For Xenopus oocyte expression, human GIRK1 and human GIRK4 cDNAs were subcloned into pGEMHE. For mammalian expression, human GIRK1 and human GIRK4 cDNAs were subcloned into pcDNA3 and pcDNA3.1/V5-His B, respectively (Invitrogen). Mouse GIRK2 cDNA was subcloned in the dual-function vector, pXoom. Point mutations were introduced using a standard Pfu-based mutagenesis technique according to the QuikChange protocol (Agilent). Mutations were verified by sequencing.
Electrophysiology of oocytes: Whole-oocyte currents were measured by conventional two-electrode voltage clamp (TEVC) with a GeneClamp 500 amplifier (Axon Instruments). Agarose cushion microelectrodes were filled with 1.5% (w/v) agarose in 3 M KCl and were used with resistances between 0.1 and 1.5 megaohms. […] Barium-sensitive basal currents from both groups, 1) Vehicle, 2) single concentration at 10 μM and 3) multiple concentrations of ML297 or GAT compounds in the presence of HK solution, were assessed at −80 mV using TEVC. Barium-sensitive currents were normalized to average basal current in the vehicle solutions. The HK solution contained the following: 96 mM KCl, 1 mM NaCl, 1 mM MgCl2, 5 mM KOH/HEPES, pH 7.4. The barium solution consisted of HK+10 mM BaCl2. Five to ten oocytes from the same batch (same frog) were recorded for each group, and the experiments were repeated in at least four batches. Data acquisition and analysis were carried out using pClamp9 (Molecular Devices) and OriginPro (Microcal) software.
To test these computational predictions, the inventors mutated each or both of the two M1 key wild-type GIRK4 subunit residues to the corresponding GIRK2 residues (GIRK4-V92I, GIRK4-T94V, GIRK4-V92I/T94V or GIRK4-dm) and vice-versa the GIRK2 residues to the corresponding GIRK4 ones (GIRK2-I97V, GIRK2-V99T, GIRK2-I97V/V99T or GIRK2-dm) (FIG. 35). […]

EC50: 940 ± 150 nM
EMAX: 1.68±0.04
Emax (read-out: EMAX, % of the control GIRK1/2): 72%
Compound: Cc1cc(NC(=O)Nc2ccc(Br)s2)n(-c2ccccc2)n1 [GAT1508, 1-(5-bromothiophen-2-yl)-3-(3-methyl-1-phenyl-1H-pyrazol-5-yl)urea]
